According to ChEMBL document CHEMBL5303711, “ECBD screening data for assay EOS300108” (2023):
Activity calls are given as the source filed them. How the calls were made is not given here.

assay: Cytotoxicity activity against human HepG2 cells assessed by CellTiter-Glo luminescent cell viability assay.; assay type: toxicity, cell-based; set-up: assay stage confirmatory assay, source tissue liver; details: HepG2 cells, read-out: IC50 relative

**Q.** With `Cc1c(C(=O)Nc2ccc(N3C[C@@H](C)O[C@@H](C)C3)nc2)cccc1-c1ccc(OC(F)(F)F)cc1` [SONIDEGIB] as the compound, how does the CC50 read?
**A.** 37.3 µM (inactive)

**Q.** For `CC(N)Cc1ccc2oc3ccccc3c2c1` (stereo unspecified), which CC50 is on record?
**A.** 8 µM (active)

**Q.** With `CCN(Cc1ccc(OC)cc1)Cc1nc2c(F)cccc2[nH]1` as the compound, how does the CC50 read?
**A.** 10.2 µM (active)

**Q.** For `O=C(c1ccc(Nc2nccc(-c3cc4ccccc4s3)n2)cc1)N1CCC(N2CCCC2)CC1`, which CC50 is on record?
**A.** 1.3 µM (active)

**Q.** Which CC50 does the source give for `CC(C)(C)c1ccc(S(=O)(=O)NCc2ccc(C(=O)Nc3cccnc3)cc2)cc1` here?
**A.** 2.6 µM (active)

**Q.** Which CC50 does the source give for `CCc1ccc([N+]2=C3SCCCN3C[C@]2(O)c2ccc(OC)c(OC)c2)cc1` here?
**A.** 10.9 µM (active)

**Q.** Which CC50 does the source give for `O=C(NC1CCCC1)N1CC(Oc2ccc(-c3noc(-c4cccnc4)n3)cc2)C1` here?
**A.** 6.9 µM (active)

**Q.** For `Cc1oc(-c2ccccc2)nc1C(=O)Nc1ncccc1O`, which CC50 is on record?
**A.** 9.6 µM (inactive)

**Q.** For `Cn1c(=O)c2c(ncn2CCn2ncc(Cl)c(Cl)c2=O)n(C)c1=O`, which CC50 is on record?
**A.** 11.7 µM (active)

**Q.** For `CC(C)N(CCCNC(=O)Nc1ccc(C(C)(C)C)cc1)C[C@H]1O[C@@H](n2cc(Br)c3c(N)ncnc32)[C@H](O)[C@@H]1O`, which CC50 is on record?
**A.** 10.1 µM (active)

**Q.** Which CC50 does the source give for `Cn1cc(/C=C2\C(=O)Nc3cccnc32)c2ccccc21` here?
**A.** 8.1 µM (inactive)

**Q.** Which CC50 does the source give for `CN1CCN(c2ccc(OC(F)(F)F)c(Nc3ncc4c(n3)-c3c(c(C(N)=O)nn3CCO)CC4)c2)CC1` [ONVANSERTIB] here?
**A.** 11.9 µM (active)

**Q.** Which CC50 does the source give for `C[C@@H](C(=O)Nc1c2c(nn1C)CSC2)N1Cc2ccccc2C1=O` here?
**A.** 15.8 µM (inactive)

**Q.** Which CC50 does the source give for `Cc1ccc(S(=O)(=O)N2CCN(c3ccc(Nc4ccncc4)nn3)CC2)cc1` here?
**A.** 10.4 µM (active)

**Q.** Which CC50 does the source give for `O=C1CCc2c(Oc3ccc4c(c3)[C@@H]3[C@H](O4)[C@H]3c3nc4ccc(C(F)(F)F)cc4[nH]3)ccnc2N1` [LIFIRAFENIB] here?
**A.** 0.5 µM (active)

**Q.** Which CC50 does the source give for `Cc1ccc(NC(=O)Nc2ccc3c(c2)N(S(C)(=O)=O)CC3)cc1` here?
**A.** 8.6 µM (inactive)

**Q.** With `CC(=O)Nc1ccc(NC(=O)c2c(O)c3sccc3n(Cc3ccccc3)c2=O)cc1` as the compound, how does the CC50 read?
**A.** 50 µM (inactive)

**Q.** Which CC50 does the source give for `COc1ccc2[nH]c(C(=O)c3ccccc3)cc2c1` here?
**A.** 0.2 µM (inactive)

**Q.** With `CCN1CCN(CCOc2ccc3ccccc3c2Cl)CC1` as the compound, how does the CC50 read?
**A.** 8 µM (active)

**Q.** With `ON=C1C[C@@H](c2ccc(Cl)cc2)Oc2ccccc21` as the compound, how does the CC50 read?
**A.** 2.7 µM (active)

**Q.** Which CC50 does the source give for `CCCc1cc2c(N3CCN(C4=NCC(C)(C)S4)CC3)ncnc2s1` here?
**A.** 13.7 µM (active)

**Q.** For `C[C@H]1Cc2cc(S(N)(=O)=O)ccc2N1Cc1cc(=O)n2cc(Cl)ccc2n1`, which CC50 is on record?
**A.** 10.9 µM (active)

**Q.** Which CC50 does the source give for `O=c1[nH]ccc2c(Br)cccc12` here?
**A.** 8.3 µM (inactive)

**Q.** For `Cc1ccc(-c2nc(C#N)c(S(=O)(=O)N(C)CCO)o2)cc1`, which CC50 is on record?
**A.** 7.3 µM (active)

**Q.** Which CC50 does the source give for `CNc1nc(-c2ccc3c(N)n[nH]c3c2)cc(N2C[C@@H](C(=O)NC3CCCCC3)CC[C@H]2C)n1` here?
**A.** 50 µM (inactive)

**Q.** For `CC(C)NC(=O)N1CC(Oc2ccc(-c3noc(C4CC4)n3)cc2)C1`, which CC50 is on record?
**A.** 2.6 µM (active)

**Q.** For `CC1(C)Cc2c(sc(NC(=O)NCc3cccnc3)c2C(N)=O)CO1`, which CC50 is on record?
**A.** 12.4 µM (inactive)

**Q.** For `CC(C)c1cc(CNc2nc(Nc3cc(C4CC4)[nH]n3)cc(N3CCN(C)CC3)n2)on1` [XL-228], which CC50 is on record?
**A.** 1.7 µM (active)

**Q.** With `Nc1nc(N)c2c(OCC3CCN(Cc4c(Cl)cccc4Cl)CC3)cccc2n1` as the compound, how does the CC50 read?
**A.** 4 µM (active)

**Q.** Which CC50 does the source give for `O=C(Nc1cccnc1)N1CCC(Cc2cccc(Oc3ccc(C(F)(F)F)cn3)c2)CC1` here?
**A.** 12.7 µM (active)

**Q.** With `O=C(Nc1ccc(Cl)c(Cl)c1)Nc1ccc(Cl)c(Cl)c1` as the compound, how does the CC50 read?
**A.** 13.1 µM (active)

**Q.** With `CCOc1ccc(OCCN2CCC[C@H](n3ccnc3CC)C2)cc1` as the compound, how does the CC50 read?
**A.** 8.4 µM (active)

**Q.** With `O=C(/C=C/c1ccc(O)c(O)c1)OCCc1ccccc1` [CAFFEIC ACID PHENETHYL ESTER] as the compound, how does the CC50 read?
**A.** 4.7 µM (active)

**Q.** Which CC50 does the source give for `CCS(=O)(=O)N1CCc2ccc(NC(=O)Nc3cccc(F)c3)cc21` here?
**A.** 5.2 µM (active)

**Q.** Which CC50 does the source give for `C[C@@H]1CN(CC(=O)Nc2ccc3c(c2)Cc2cccc(-c4cc(=O)cc(N5CCOCC5)o4)c2S3)C[C@H](C)O1` here?
**A.** 17.8 µM (inactive)

**Q.** For `COc1cccc(-c2cc(F)ccc2[C@H]2Cc3nc(N)nc(C)c3C(=O)N2)n1`, which CC50 is on record?
**A.** < 0.1 µM (active)
